# Experimental data taken from ChEMBL document CHEMBL5352456, “Isocyanides in med chem: A scaffold hopping approach for the identification of novel 4-isocyanophenylamides as potent antibacterial agents against methicillin-resistant Staphylococcusaureus” (Eur J Med Chem, 2023).
# Experiments:
# Format in all cases: functional
# Conditions in all cases: time 16-20 hrs
# [1] = system: Klebsiella pneumoniae; assay: Antibacterial activity against Klebsiella pneumoniae ATCC 700603 assessed as inhibition of bacterial growth measured for 16 to 20 hrs by microdilution assay
# [2] = system: Pseudomonas aeruginosa; assay: Antibacterial activity against Pseudomonas aeruginosa ATCC 10145 assessed as inhibition of bacterial growth measured for 16 to 20 hrs by microdilution assay
# [3] = system: Staphylococcus aureus; assay: Antibacterial activity against Staphylococcus aureus ATCC 6538 assessed as reduction in microbial growth measured for 16 to 20 hrs by microdilution assay
# [4] = system: Escherichia coli; assay: Antibacterial activity against Escherichia coli ATCC 25922 assessed as inhibition of bacterial growth measured for 16 to 20 hrs by microdilution assay
# [5] = system: Staphylococcus aureus; assay: Antibacterial activity against Staphylococcus aureus ATCC 25923 assessed as reduction in microbial growth measured for 16 to 20 hrs by microdilution assay
# [6] = system: Staphylococcus aureus; assay: Antibacterial activity against Staphylococcus aureus ATCC 29213 assessed as reduction in microbial growth measured for 16 to 20 hrs by microdilution assay
MIC [1] [µM],MIC [2] [µM],MIC [3] [µM],MIC [4] [µM],MIC [5] [µM],MIC [6] [µM],SMILES
≥ 64,≥ 64,> 8,≥ 64,> 8,> 8,[C-]#[N+]c1ccc(NC(=O)Cc2ccncc2)cc1
≥ 64,≥ 64,> 8,≥ 64,> 8,> 8,[C-]#[N+]c1ccc(NC(=O)CC2CCCCC2)cc1
≥ 64,≥ 64,> 8,≥ 64,> 8,> 8,[C-]#[N+]c1ccc(NC(=O)c2ccccc2C(F)(F)F)cc1
≥ 64,≥ 64,> 8,≥ 64,> 8,> 8,[C-]#[N+]c1ccc(NC(=O)Cc2c[nH]c3ccccc23)cc1
≥ 64,≥ 64,> 8,≥ 64,> 8,> 8,[C-]#[N+]c1ccc(NC(=O)CCc2cccnc2)cc1
≥ 64,≥ 64,> 8,≥ 64,> 8,> 8,N#Cc1ccc(NC(=O)COc2ccccc2)cc1
≥ 64,≥ 64,> 8,≥ 64,> 8,> 8,[C-]#[N+]c1ccc(NC(=O)c2cccnc2)cc1
≥ 64,≥ 64,> 8,≥ 64,> 8,> 8,[C-]#[N+]c1ccc(NC(=O)Cc2c(Cl)cccc2Cl)cc1
≥ 64,≥ 64,> 8,≥ 64,> 8,> 8,[C-]#[N+]c1ccc(NC(=O)Cc2ccccc2[N+](=O)[O-])cc1
≥ 64,≥ 64,> 8,≥ 64,> 8,> 8,[C-]#[N+]c1ccc(NC(=O)c2ccccc2[N+](=O)[O-])cc1
≥ 64,≥ 64,> 8,≥ 64,> 8,> 8,[C-]#[N+]c1ccc(NC(=O)CC(C)C)cc1
≥ 64,≥ 64,> 8,≥ 64,> 8,> 8,[C-]#[N+]c1ccc(NC(=O)C(=O)c2ccccc2)cc1
≥ 64,≥ 64,> 8,≥ 64,> 8,> 8,N#Cc1ccc(NC(=O)Cc2cccc(Cl)c2)cc1
≥ 64,≥ 64,> 8,≥ 64,> 8,> 8,[C-]#[N+]c1ccc(NC(=O)CCc2cc(OC)c(OC)c(OC)c2)cc1
≥ 64,≥ 64,> 8,≥ 64,> 8,> 8,[C-]#[N+]c1ccc(NC(=O)c2ccccc2)cc1
≥ 64,≥ 64,> 8,≥ 64,> 8,> 8,[C-]#[N+]c1ccc(NC(=O)c2ccc(Br)cc2)cc1
≥ 64,≥ 64,> 8,≥ 64,> 8,> 8,[C-]#[N+]c1ccc(NC(=O)Cc2cc(OC)c(OC)c(OC)c2)cc1
≥ 64,≥ 64,> 8,≥ 64,> 8,> 8,[C-]#[N+]c1ccc(C(=O)Nc2ccccc2)cc1
≥ 64,≥ 64,> 8,≥ 64,> 8,> 8,[C-]#[N+]c1ccc(NC(=O)c2ccc(OC)cc2)cc1
≥ 64,≥ 64,> 8,≥ 64,> 8,> 8,[C-]#[N+]c1ccc(NC(=O)Cc2ccccc2OC)cc1
